Laboratory results published in US10548870B2, “Method for treating multiple sclerosis” (OLATEC THERAPEUTICS LLC, priority 2017, dated 2020).

What was measured:
Assay type in all cases: in vivo, C57Bl/6 mice
[1] = system: experimental allergic encephalomyelitis (EAE) mice; experiment: Prophylactic intraperitoneal treatment of dapansutrile in EAE mice; conditions: 60 mg/kg i.p. twice daily, Day 0 to Day 21
Method: (§1) Active immunization was done in female adult (8 weeks old) C57Bl/6 mice. Briefly, mice were subcutaneously injected with […] of myelin oligodendrocyte glycoprotein (MOG)35-55 peptide ([…], SEQ ID NO: 1) emulsified in complete Freund's Adjuvant (Sigma Aldrich) supplemented with 4 mg of micobacterioum tuberculosis H37RA (DIFCO Laboratories). On day 0 and 2 post-immunization, mice were also injected intraperitoneally (i.p.) with 500 ng of pertussis toxin (List Biological Laboratories).
Starting on day 0 (day of immunization), mice were injected intraperitoneally twice daily with dapansutrile (OLT1177™, 60 mg/kg) or saline until the end of the study (Day 21). Each treated group had 10 mice.
Animals were monitored daily for signs of EAE and the scoring system is as follows: 0=no clinical symptoms, normal walking; 0.5=partial paralyzed tail, 1=fully paralyzed tail; 2=mild hind-limb weakness, quick righting reflex; 3=severe hind-limb weakness, slow righting reflex, unable to bear weight; 3.5=severe hind-limb weakness and partial paralysis of hind limb; 4=complete paralysis of at least one hind limbs; 4.5=complete paralysis of one or both one hind limbs and trunk weakness; 5=complete paralysis of one or both hind limbs, forelimb weakness or paralysis; 6=mouse is found dead by EAE. […]

[2] = system: experimental allergic encephalomyelitis (EAE) mice; experiment: Prophylactic oral treatment (dapansutrile-enriched diet) in EAE mice
Method: as §1
(§2) Animals were monitored daily for signs of EAE and the scoring system is as follows: 0=no clinical symptoms, normal walking; 0.5=partial paralyzed tail, 1=fully paralyzed tail; 2=mild hind-limb weakness, quick righting reflex; 3=severe hind-limb weakness, slow righting reflex, unable to bear weight; 3.5=severe hind-limb weakness and partial paralysis of hind limb; 4=complete paralysis of at least one hind limbs; 4.5=complete paralysis of one or both one hind limbs and trunk weakness; 5=complete paralysis of one or both hind limbs, forelimb weakness or paralysis; 6=mouse is found dead by EAE.
(§3) EAE mice were euthanized at either day 21 or 23 post-immunization with an overdose of pentobarbital sodium (Dolethal) and transcardially perfused with 4% paraformaldehyde (PFA) in 0.1M phosphate buffer (PB). Lumbar segments of spinal cords were harvested, post-fixed in 4% PFA for 2 hours and cryoprotected in 30% sucrose in 0.1M at 4° C. for at least 48 hours. Spinal cords were embedded in TissueTek OCT (Sakura), cut in transversal sections (15 μm-thick) with a cryostat (Leica) between L3 and L5 segments and serially picked up on gelatine-coated glass slides. Samples were stored at −20° C.
(§4) Sections were stained with Luxol Fast Blue (LFB) (Sigma Aldrich). Briefly, after a graded dehydration, sections were placed in 1 mg/mL of LFB solution in 96% EtOH and 0.05% acetic acid overnight at 37° C. and protected from light. Then, slides were washed with 96% EtOH, rehydrated in distilled water and placed in a 0.5 mg/mL Li2CO3 solution for 3-5 minutes at room temperature. Finally, sections were washed in distilled water, dehydrated again in 100% EtOH and mounted in DPX (Sigma Aldrich). To assess the demyelinated area in the spinal cord, 6 random images per mice were captured at 10× magnification with an Olympus BX51 and the attached Olympus DP73 Camera. The total demyelinated area within the spinal cord was measured with Image J image analysis software.
(§5) EAE induction, functional assessment, and histological analysis were the same as those described in Example 2.
Starting on day 0 (day of immunization), EAE-mice were fed either a dapansutrile-enriched diet or a standard diet. […]

[3] = system: experimental allergic encephalomyelitis (EAE) mice; experiment: Oral gavage treatment with dapansutrile in EAE mice starting at disease onset
Method: as §1, §2, §3, §4, §5
60 mg/kg of dapansutrile was solubilized with distilled water and administered daily by oral gavage at 60 mg/kg animal weight to mice twice per day. […] Control mice were administered distilled water at the same days. […]

[4] = diet with 3.75 g dapansutrile per kg food, Day 0 to Day 23, vs standard diet (FIG. 2B)
[5] = 60 mg/kg oral gavage twice daily from disease onset, vs vehicle (FIG. 3B)

CS(=O)(=O)CCC#N [dapansutrile, 3-methanesulfonylpropionitrile]
demyelination in the lumbar spinal cord (LFB staining) ([1]; vs saline (FIG. 1B)): reduced the demyelination in the spinal cord
EAE clinical score ([1]; vs saline, significant from day 11 to day 21 (FIG. 1A)): significant lower disease scores
daily EAE clinical scores after disease onset ([2]; diet with 3.75 g dapansutrile per kg food (about 50 mg/kg/day), Day 0 to Day 23, vs standard diet (FIG. 2A)): lower daily EAE clinical scores
cumulative EAE score [2, 4]: lower cumulative EAE scores
maximum EAE score [2, 4]: lower maximum EAE scores
reduction of demyelination in the spinal cord ([2]; diet with 3.75 g dapansutrile per kg food, 23 days after immunization, vs standard food (FIG. 2C)): about 2 fold
reduction in the EAE score compared to vehicle ([3]; 60 mg/kg oral gavage twice daily from disease onset (FIG. 3A)): about 1 point
cumulative clinical EAE score [3, 5]: significantly reduced
maximum clinical EAE score [3, 5]: significantly reduced
demyelination in LFB stained spinal cords ([3]; 60 mg/kg oral gavage twice daily from disease onset, vs vehicle (FIG. 3C)): protection against demyelination
